In brackets after ≈: the same amount, converted by molar mass. Entries after “also recorded” stand apart in the source; their conditions may differ. Like-named read-outs stand apart in the source and are kept apart here.
Assays:
[1] = Antimetabolic activity: inhibition of (methyl-^3 H)TdR incorporation into DNA of PRK cells (Test 3a); type: cell-based; conditions: rabbit
Method: (§1) (a) In a first experiment, the incorporation of certain radiolabelled DNA precursors into DNA of the cells, and the effect of 5-(2-bromovinyl)-2'-deoxyuridine and related compounds thereon, was tested. The technique has been described by De Clercq et al in Biochemical Pharmacology, 26, 794-797 (1977) and by De Clercq et al in Molecular Pharmacology, in press, 1978, which are incorporated herein by way of reference.
(§2) The DNA precursors as used were (methyl-^3 H) (2'-deoxythymidine) (TdR), and (2-^14 C) (2'-deoxyuridine) (UdR).
(§3) Incorporation of the radiolabelled precursor was then measured as described and the ID50 was determined.

[2] = Antimetabolic activity: inhibition of (2-^14 C)UdR incorporation into DNA of PRK cells (Test 3a); type: cell-based; conditions: rabbit
Method: as §1, §2, §3

[3] = system: herpes simplex-1 (strain KOS) virus; test: microbe, parasite or virus in culture; type: cell-based, herpes simplex-1 virus (strain KOS); conditions: for IC50: 72 h, 100 CCID50, CPE, generally 3 days, average of three experiments; for selectivity of antiviral activity (in words): herpes simplex virus
herpes simplex-1 = test: Antiviral index in PRK cell cultures: antimetabolic ID50 divided by antiviral ID50 (Test 4); type: cell-based, herpes simplex-1 virus; conditions: for Antiviral index: PRK cells, ID50 cell number / ID50 CPE of herpes simplex-1; for antiviral index (in words): against herpes simplex virus
Method: Finally, the antiviral index of 5-(2-bromovinyl)-2'-deoxyuridine and its related compounds in PRK cell cultures was determined as a result of the measurements made in the foregoing tests.
The antiviral index was calculated by dividing the "antimetabolic" ID50 by the "antiviral" ID50. The "antimetabolic" ID50 corresponded to the dose required to reduce the cell number by 50% whereas the "antiviral" ID50 corresponded to the dose required to inhibit the cytopathic effect of herpes simplex-1 by 50%.

[4] = Antimetabolic activity: reduction of total cell number of PRK cells (Test 3b); conditions: rabbit
vaccinia virus = test: microbe, parasite or virus in culture; type: cell-based; conditions: Orthopoxvirus vaccinia, 72 h
[5] = state of the art; cited from earlier work
in vitro = conditions: rabbit, prk cells
[6] = system: DNA viruses such as vaccinia and herpes simplex; conditions: state of the art; cited from earlier work
cell culture [7] = test: Toxicity in cell culture (summary statement)
cell culture [8] = system: cell culture
[9] = PRK cells, 16 hours, read-out: ID50 (methyl-^3 H)TdR incorporation into DNA
[10] = PRK cells, 16 hours, read-out: ID50 (2-^14)UdR incorpor. into DNA
[11] = human skin fibroblast (HSF) cells, read-out: ID50 Herpes simplex-1 strain KOS (HSF)
[12] = primary rabbit kidney (PRK) cells, read-out: ID50 Herpes simplex-1 strain KOS (PRK)
[13] = HSF, read-out: ID50 Vaccinia (HSF)
[14] = PRK, in Oryctolagus cuniculus, read-out: ID50 Vaccinia (PRK)

Compound | IC50 at 16 h [1, 9] [µg/mL] | IC50 at 16 h [2, 10] [µg/mL] | IC50 [3, 11] [µg/mL] | IC50 [3, 12] [µg/mL] | Antiviral index (herpes simplex-1) | CC50 at 72 h [4] [µg/mL] | IC50 (vaccinia virus; [13]) [µg/mL] | IC50 (vaccinia virus; [14]) [µg/mL] | IC50 at 16 h ([1]; prk cells) [µg/mL] | IC50 at 16 h ([2]; prk cells) [µg/mL] | toxicity of known compounds (in words) [5] | CC50 at 72 h (in vitro) [µg/mL] | antiviral activity/specificity of known compounds (in words) [6] | toxicity (in words) (cell culture [7]) | selectivity of antiviral activity (in words) [3] | antiviral index (in words) (herpes simplex-1) | toxicity (in words) (cell culture [8])
C#Cc1cn([C@H]2C[C@H](O)[C@@H](CO)O2)c(=O)[nH]c1=O [2'-deoxy-5-ethynyluridine] | 100 (≈ 396 µM) | < 6 | 0.4 (≈ 1.59 µM) | 0.07 (≈ 0.278 µM) | 5 | 0.3 (≈ 1.19 µM) | 0.1 (≈ 0.396 µM) | 0.2 (≈ 0.793 µM) |  |  |  |  |  |  |  |  | 
O=c1[nH]c(=O)n([C@H]2C[C@H](O)[C@@H](CO)O2)cc1I [2'-deoxy-5-iodouridine] |  |  | 0.7 (≈ 1.98 µM) | 0.2 (≈ 0.565 µM) | 30 |  | 0.2 (≈ 0.565 µM) | 0.2 (≈ 0.565 µM) | 2.5 (≈ 7.06 µM) | 1.2 (≈ 3.39 µM) | cannot be neglected | 6 (≈ 16.9 µM) | act equally well against different DNA viruses such as vaccinia and herpes simplex |  |  |  | 
C=Cc1cn([C@H]2C[C@H](O)[C@@H](CO)O2)c(=O)[nH]c1=O [2'-deoxy-5-vinyluridine] |  |  | 0.07 (≈ 0.275 µM) | 0.04 (≈ 0.157 µM) | 200 |  | 0.1 (≈ 0.393 µM) | 0.4 (≈ 1.57 µM) | 20 (≈ 78.7 µM) | 8 (≈ 31.5 µM) | cannot be neglected | 8 (≈ 31.5 µM) | act equally well against different DNA viruses such as vaccinia and herpes simplex |  |  |  | 
C=C(Cl)c1cn([C@H]2C[C@H](O)[C@@H](CO)O2)c(=O)[nH]c1=O [5-(1-chlorovinyl)-2'-deoxyuridine] |  |  | 2 (≈ 6.93 µM) | 0.4 (≈ 1.39 µM) | 5 |  | 0.7 (≈ 2.42 µM) | 0.4 (≈ 1.39 µM) | 27 (≈ 93.5 µM) | < 6 |  | 2 (≈ 6.93 µM) |  |  |  |  | 
O=c1[nH]c(=O)n([C@H]2C[C@H](O)[C@@H](CO)O2)cc1/C=C/Br [E-5-(2-bromovinyl)-2'-deoxyuridine] | 70 (≈ 210 µM) | 35 (≈ 105 µM) | 0.007 (≈ 0.021 µM) | 0.007 (≈ 0.021 µM) | > 5000 | > 33 | 0.7 (≈ 2.1 µM) | 7 (≈ 21 µM) |  |  |  |  |  | remarkably low | specific antiviral activity; also recorded: very selective towards herpes simplex virus | remarkably high antiviral index | 
O=c1[nH]c(=O)n([C@H]2C[C@H](O)[C@@H](CO)O2)cc1/C=C/I [E-5-(2-iodovinyl)-2'-deoxyuridine] |  |  |  | 0.01 (≈ 0.0263 µM) |  |  |  | 10 (≈ 26.3 µM) |  |  |  |  |  |  | specific antiviral activity; also recorded: very selective towards herpes simplex virus | high antiviral index | remarkably low
